We go through 4 compounds from patent US4278467A, “Substitutive additives for isopropyl alcohol in fountain solution for lithographic offset printing” (priority 1979, dated 1981).

A short description of data set [1]: Solubility of selected materials in water, expressed in percent by weight at 20° C. The data set is classed as physicochemical.
The nature of data set [2]: Solubility of the material in heptane. The data set is classed as physicochemical. Particulars: 20° C.
Data set [3] can be described thus: Solubility of water in the material, percent by weight at 20° C. Particulars: water dissolved in the additive. The format is physicochemical.
For data set [4] the following is noted: cited from earlier work.
The conditions of data set [5]: 20° C.; cited from earlier work.
A short description of data set [6]: Surface tension as measured by the duNouy tensiometer device. The format is physicochemical. From the text:
In continuous dampening systems, the dampening solution has a surface tension of from about 40 to 50 dynes/cm or less as measured by the duNouy tensiometer device. Isopropyl alcohol has an undiluted surface tension of about 21 dynes/cm and isopropyl alcohol at about 10 to 30 percent by volume in water has a surface tension of between 40 to 50 dynes/cm. […] The point where the optimum ink-water balance control is obtained depends on a combination of complicated factors not yet precisely known. These factors include the design and speed of the press, design of the dampening system, the nature and amount of concentrates that are used in the dampening solution, the nature of the form being printed and the experience of the operator. A typical lower limit of effective use of isopropyl alcohol in continuous flow dampening systems is between about 10 to 15 percent by volume. This corresponds to surface tension values in the range of about 40 to 50 dyne/cm.

Converted amounts (≈) assume the structure as drawn. Like-named read-outs stand apart in the source and are kept apart here.

As to `CCCCCCOCCO` [n-hexyl Cellosolve, n-hexoxyethylene glycol], in data set [1], the “Sol. in Water” value turned out to be 1.0 percent by weight. Also, the “Sol. in Heptane” value in data set [2] is recorded as “Complete”. In addition, in data set [3], the “Sol. of Water in (material)” value amounted to 19 percent by weight.

As to `CC(C)O` [isopropyl alcohol], in data set [4] (at its boiling point of 82° C.), the heat of vaporization was 164 callories/gm. Besides, in data set [5], the vapor pressure result is given as “about 30 mm of Hg”. The surface tension in data set [6] (about 10 to 30 percent by volume in water) is given as 40 to 50 dynes/cm; in data set [6] (lower limit of effective use, about 10 to 15 percent by volume) it was 40 to 50 dyne/cm; in data set [6] (undiluted), “about 21 dynes/cm”.

For the compound `CCCC(O)C(CC)CO` (stereo not drawn) [2-ethyl-1,3-hexanediol], in data set [1] (water, read-out: Sol. in Water), the solubility was determined as 42 mg/mL (≈ 287 mM). Moreover, the “Sol. of Water in (material)” value in data set [3] was 12 percent by weight.

In the case of `O` [water], in data set [4] (at 100° C.), the heat of vaporization was 540 calories/gm. Moreover, the vapor pressure in data set [5] is on record as ~18 mm of Hg.
